This is an account of results in US7645760B2, “1-(4-Benzyl-piperazin-1-yl)-3-phenyl-propenone derivatives” (Novartis AG., priority 2002, dated 2010).

In general, melting point refers to the temperature, or range, at which the solid turns liquid. As for `C[C@@H]1CN(Cc2ccc(F)cc2)CCN1C(=O)/C=C/c1ccc(Cl)cc1NC(=O)N1CCNC1=O` [Example 11, 2-Oxo-imidazolidine-1-carboxylic acid (5-Chloro-2-[(E)-3-[(R)-4-(4-fluoro-benzyl)-2-methyl-piperazin-1-yl]-3-oxo-propenyl]-phenyl)-amide], the melting point lay within 275 to 277 °C.
